From PubChem BioAssay AID2387 (Broad Institute, 2010)
Where “and” joins values, the source holds several entries; their conditions need not be identical. Equal values may be shown once. Calls of active or inactive are those of the source.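 Rule for the calls: active = fitted EC50 no more than tenfold above the highest tested concentration; inconclusive = flat fit with 30 to 70% signal loss, or poor fit; inactive = the rest.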

Tested on: Candida albicans CaCi-2 growth (no fluconazole), Alamar Blue
Test: C. albicans growth inhibition without fluconazole, dose response, counter-screen for fluconazole resistance reversal project, CaCi-2 strain, Alamar Blue fluorescence (AID 2387)
Conditions: C. albicans CaCi-2 (fluconazole-resistant clinical isolate) growth without fluconazole, 48 h

| Structure (SMILES) | EC50 |
| --- | --- |
| Cc1cccc(/C=C/C(=O)c2cc(Br)ccc(=O)c2O)c1 | 14.5 µM |
| O=Nc1c(-c2cccc([N+](=O)[O-])c2)nc2ncccn12 | 5.3 µM |
| COc1ccc2c(c1)/C(=C/c1cnc[nH]1)C(=O)N2 | > 16 µM (inactive) |
| Cc1cccc(C(=O)NNC2=C(C(=O)C(F)(F)F)CCC2)c1O | > 16 µM (inactive) |
| COc1cccc(/C=N/NC(=O)c2c(C)nc3ccc(Br)cn23)c1O | > 16 µM (inactive) |
| CCNC(=S)NNC(=O)c1cc(-c2ccccc2C)nc2ccccc12 | > 16 µM (inactive) |
| COC(=O)c1ccc(COc2ccc(/C=C(\C#N)c3nc4ccccc4[nH]3)cc2OC)o1 | > 16 µM (inactive) |
| CCc1ccc(C2c3[nH]c4ccccc4c3CCN2C(=O)c2ccc(=O)n(C)n2)cc1 (configuration not stated) | > 16 µM (inactive) |
| O=C(NNC(=S)NC(=O)c1ccc(Br)cc1)c1ccc([N+](=O)[O-])cc1 | > 16 µM (inactive) |
| CCOC(=O)N1C(=O)C2(CCCCC2)N(c2ccccc2Cl)C1=S | 14.6 µM |
| O=[N+]([O-])c1cc(O)c2ncccc2c1 | 12.3 µM |
| CCCCOc1cccc(C2C(C(=O)c3ccc(C)o3)=C(O)C(=O)N2Cc2ccco2)c1 (configuration not stated) | > 15 µM (inactive) |
| Fc1cccc(-n2cc(-c3ccccc3)c3c(=S)nc[nH]c32)c1 | > 15 µM (inactive) |
| COC(=O)Cn1nc(-c2ccccc2)c2ccccc21 | > 15 µM (inactive) |
| O=c1c2cc(Br)ccc2nc(-c2cccc(C(F)(F)F)c2)n1O | 14.3 µM |
| S=c1[nH]nc(C2CCCCC2)n1/N=C/c1ccc(Br)s1 | > 15 µM (inactive) |
| COc1ccc(-n2cc(-c3ccc(C)cc3)[n+]3c2SCC3)cc1 | > 15 µM (inactive) |
| Cc1cc(Nc2ccccc2)nc(NCc2ccccc2)n1 | > 15 µM (inactive) |
| CC(C)C(=O)NC(c1cccs1)c1cc([N+](=O)[O-])c2cccnc2c1O (configuration not stated) | 12.9 µM |
| CC(C)(C)c1ccc(OCCCC(=O)NNC(=O)c2ccccc2O)cc1 | > 16 µM (inactive) |
| CCc1cc(-c2n[nH]c(=S)n2-c2ccccc2C)cs1 | > 16 µM (inactive) |
| Cc1ccc(OCC(=O)NNC(=S)NC(=O)C2CC2)c(C)c1 | > 15 µM (inactive) |
| CCCCC(=O)NC(c1ccccc1)c1ccc2cccnc2c1O (configuration not stated) | > 15 µM (inactive) |
| COc1ccc(OC)c(C2C(C(=O)c3cc4ccccc4o3)=C(O)C(=O)N2c2cc(C)on2)c1 (configuration not stated) | > 15 µM (inactive) |
| C/C(=N\NC(=O)c1cc(C2CC2)nc2ccccc12)c1ccc(O)cc1O | > 16 µM (inactive) |
| CCN1/C(=C/C=C/c2oc3ccc(-c4ccccc4)cc3[n+]2CC)Oc2ccc(-c3ccccc3)cc21 | 6.54 µM |

| Structure (SMILES) | EC50 |
| --- | --- |
| Cc1oc2c(F)c(F)c(F)c(F)c2c1S(=O)(=O)Nc1cccc(C(F)(F)F)c1 | > 16 µM (inactive) |
| CCCC(=O)NC(c1ccc(Cl)cc1)c1ccc2cccnc2c1O (configuration not stated) | 16.1 µM |
| Cc1ccc2nc(/C(C#N)=C\c3ccc(OC(=O)c4cccs4)cc3)[nH]c2c1 | > 16 µM (inactive) |
| CCCn1nc([N+](=O)[O-])c(C(C#N)c2nc3ccccc3s2)c(Cl)c1=O (configuration not stated) | > 16 µM (inactive) |
| CCCC(=O)NC(c1ccc(N(C)C)cc1)c1ccc2cccnc2c1O (configuration not stated) | > 16 µM (inactive) |
| CCCCc1c(O)nc(SCC(=O)Nc2cccc3ccccc23)n(-c2ccccc2OC)c1=O | > 16 µM (inactive) |
| NC(=NCCCCCCN=C(N)/N=C(\N)Nc1ccc(Cl)cc1)/N=C(\N)Nc1ccc(Cl)cc1 | > 16 µM (inactive) and > 15 µM (inactive) |
| CCCCC(=O)NC(c1ccc(Cl)cc1)c1ccc2cccnc2c1O (configuration not stated) | 9.92 µM |
| c1ccc2c(c1)CCN(c1ncnc3c1[nH]c1ccccc13)C2 | > 15 µM (inactive) |
| COc1ccc(C(c2c(O)ccc3ccccc23)N2CCOCC2)c(OC)c1 (configuration not stated) | > 16 µM (inactive) |
| O=C(Nc1nnc(-c2ccncc2)o1)c1ccc2ccccc2c1 | > 15 µM (inactive) |
| O=C(Cc1ccc(Cl)cc1)NNC(=S)NC(=O)c1cccs1 | > 16 µM (inactive) |
| COc1ccc(C(=O)NNC(=S)NC(=O)c2ccc(Cl)cc2)cc1 | > 16 µM (inactive) |
| COc1ccccc1OCC(=O)N/N=C/C=C/c1ccc([N+](=O)[O-])o1 | > 16 µM (inactive) |
| Cc1cc(C(C#N)c2ccccc2F)n2ncnc2n1 (configuration not stated) | > 16 µM (inactive) |
| Oc1c(CN2CCN(c3ccccc3)CC2)cc(Br)c2cccnc12 | 2.11 µM |
| Nc1c(S(=O)(=O)c2ccccc2)c2nc3ccccc3nc2n1CCN1CCOCC1 | > 16 µM (inactive) |
| CC(=O)Nc1ccc(Nc2c3ccccc3nc3ccccc23)cc1 | > 15 µM (inactive) |
| CCc1ccc2c(c1)/C(=C/C(=O)c1cccs1)C(=O)N2 | > 15 µM (inactive) |
| C=CCNC(=S)N/N=C(\C)c1ccccn1 | 4.96 µM |
| COc1cc2c(cc1NC(=O)c1ccco1)CCCC2 | > 15 µM (inactive) |
| CCOc1ccc(N=Nc2ccc(O)c3ncccc23)cc1 | 2.3 µM |
| CCCOc1ccc(C(=O)NNC(=S)NC(C)=O)cc1 | > 16 µM (inactive) |
| CCC(=O)NC(c1cccs1)c1cc(Cl)c2cccnc2c1O (configuration not stated) | 16.4 µM |
| O=[N+]([O-])c1c(C(Cl)Cl)nn(-c2ccc(Cl)cc2)c1N1CCCCC1 | > 16 µM (inactive) |
| Cc1ccc(NC(=O)c2noc(C(C)C)c2[N+](=O)[O-])cc1 | > 16 µM (inactive) |

| Structure (SMILES) | EC50 |
| --- | --- |
| Cc1oc2ccc(OC(=O)N(C)C)cc2c1C(=O)OC(C)C | > 16 µM (inactive) |
| CCCn1nnnc1NC(=O)c1ccc2ccccc2c1 | > 15 µM (inactive) |
| Cc1cccc(C(=O)CC(=O)c2cc(Cl)ccc2O)c1 | > 15 µM (inactive) |
| CCSc1nnc(-c2ccc(C)cc2)c2ccccc12 | > 15 µM (inactive) |
| CCC(=O)NC(c1ccc(OC)cc1)c1cc(Cl)c2cccnc2c1O (configuration not stated) | > 16 µM (inactive) |
| CC1CCN(Cc2c(C(=O)N/N=C/c3cc(Cl)ccc3O)nnn2-c2nonc2N)CC1 | > 15 µM (inactive) |
| O=C(O)c1ccccc1-c1ccccc1C(=O)Nc1cccc(-c2nc3ccccc3o2)c1 | > 15 µM (inactive) |
| O=C(Nc1nnc(CCc2ccccc2)s1)c1ccco1 | > 15 µM (inactive) |
| O=C(NC(Nc1nc2ccc([N+](=O)[O-])cc2s1)(C(F)(F)F)C(F)(F)F)c1ccccc1Cl | > 16 µM (inactive) |
| Oc1c(CN2CCN(c3ccc(F)cc3)CC2)cc(Cl)c2cccnc12 | 2.74 µM |
| Cc1ccc(NC(=O)c2ccccc2NS(=O)(=O)c2ccc(Cl)s2)cc1 | > 15 µM (inactive) |
| O=C(Nc1nnc(SCc2ccc(Cl)cc2)s1)c1cnccn1 | > 16 µM (inactive) |
| CS(=O)(=O)NN1C(=O)c2ccccc2NC1c1cccc2cccnc12 (configuration not stated) | > 16 µM (inactive) |
| COc1ccc(-n2c(-c3cccc(C)c3[N+](=O)[O-])n[nH]c2=S)cc1 | > 15 µM (inactive) |
| CC1CCN(Cc2c(C(=O)N/N=C/c3cc(Br)ccc3O)nnn2-c2nonc2N)CC1 | > 16 µM (inactive) |
| O=C(c1cc(-c2ccccc2)n[nH]1)N1CCc2c([nH]c3ccccc23)C1c1ccccn1 (configuration not stated) | > 16 µM (inactive) |
| COc1ccc(C(=O)N2c3ccccc3C=CC2C#N)cc1 (configuration not stated) | > 15 µM (inactive) |
| CC(C)Cc1nc2oc3c(=O)[nH]cnc3c2c2c1CCCC2 | > 15 µM (inactive) |
| O=C(Nc1nnc(-c2ccco2)o1)c1cccc(Cl)c1 | > 15 µM (inactive) |
| O=C(Nc1cccc(-c2cn3ccccc3n2)c1)c1cccc(Cl)c1 | > 16 µM (inactive) |
| Cc1ccc(NC2=CC(=O)C(=O)c3ccccc32)cc1 | > 15 µM (inactive) |
| CCCCCCc1c(C)nc(-n2[nH]c(C)c(CCO)c2=O)[nH]c1=O | > 16 µM (inactive) |
| [O-][N+]1=c2ccc(Nc3ccccc3)cc2=NC12CCCCC2 | > 15 µM (inactive) |
| Oc1cccc(C(Nc2nccs2)c2ccc3cccnc3c2O)c1 (configuration not stated) | > 16 µM (inactive) |
| CCNc1nc(NC(C)C)nc(NC(C)(C)C)n1 | > 16 µM (inactive) |
| Cc1cc(C)n(-c2nc3ccccc3c(=O)n2OCC#N)n1 | 11.2 µM |

| Structure (SMILES) | EC50 |
| --- | --- |
| O=C(c1cc2c(s1)CCCCC2)N1CCN(c2ncccn2)CC1 | > 16 µM (inactive) |
| Nc1[nH]c(=O)ncc1F | > 16 µM (inactive) |
| Cc1ccc2nc(N3C(=O)C(O)=C(C(=O)c4ccco4)C3c3ccc(C)o3)sc2c1 (configuration not stated) | > 15 µM (inactive) |
| Cc1ccc(C)c(NC(=S)NNC(=O)c2csc(C(C)C)c2)c1 | > 16 µM (inactive) |
| O=C(Oc1cc2oc(=O)c3c(c2cc1Cl)CCCC3)c1cccs1 | > 15 µM (inactive) |
| CCCC(=O)NC(c1ccccc1OC)c1ccc2cccnc2c1O (configuration not stated) | > 16 µM (inactive) |
| COc1cccc(N=Nc2ccc(O)c3ncccc23)c1 | 1.26 µM |
| Cc1ccccc1C(=O)O/N=C/c1c(N2CCOCC2)n(C)c2ccccc12 | > 16 µM (inactive) |
| O=C(Nc1nnc(-c2ccc(F)cc2)o1)c1cccc([N+](=O)[O-])c1 | > 15 µM (inactive) |
| CCCOc1ccc(C(=O)NNC(=S)NC(=O)CC)cc1 | > 15 µM (inactive) |
| CC1(O)CC(c2ccc(Cl)cc2)=NN1C(=O)c1ccc([N+](=O)[O-])cc1 (configuration not stated) | > 16 µM (inactive) |
| Cc1cc(C(=O)Nc2sc3c(c2C#N)CCCC3)no1 | > 16 µM (inactive) |
| CC(=O)NC(c1ccc(C)cc1)c1cc([N+](=O)[O-])c2cccnc2c1O (configuration not stated) | > 16 µM (inactive) |
| O=C(CCc1ccccc1)NNC(=S)NC(=O)c1ccccc1 | > 15 µM (inactive) |
| O=c1[nH]c(-c2ccccn2)nc(C(F)(F)F)c1Br | > 15 µM (inactive) |
| CCCC(=O)NC(c1ccccc1)c1ccc2cccnc2c1O (configuration not stated) | > 16 µM (inactive) |
| CCCC(=O)NC(c1ccc(OC)cc1)c1ccc2cccnc2c1O (configuration not stated) | > 16 µM (inactive) |
| COc1cccc(N=Nc2ccc3cccnc3c2O)c1 | 1.05 µM |
| Cc1ccnc(Sc2ccc([N+](=O)[O-])cc2[N+](=O)[O-])n1 | > 15 µM (inactive) |
| COc1ccc(-c2nnc(NC(=O)c3ccc(S(=O)(=O)N4CCc5ccccc5C4)cc3)o2)cc1 | > 15 µM (inactive) |
| Oc1c(C(c2ccc(Cl)cc2)N2CCCC2)cc(Cl)c2cccnc12 (configuration not stated) | 3.15 µM |
| O=C(/C(=N/N=C/c1ccc(O)c(O)c1O)c1ccccc1)c1ccccc1 | > 15 µM (inactive) |
| CCc1cc(C(=O)NC2CCCc3c2cnn3-c2cccc(C)c2C)n(C)n1 (configuration not stated) | > 15 µM (inactive) |
| CCOc1ccc(NC(=O)c2cn(-c3ccc(OCC)cc3)c(=O)c3cc(OC)c(OC)cc23)cc1 | > 16 µM (inactive) |
